We go through 14 compounds from patent US11117866B2, “Terpineol and preparation method and application thereof” (priority 2016, dated 2021).

Like-named read-outs stand apart in the source and are kept apart here.

One test has as its system Rat asthma model. As to the kind of experiment: Rat asthma model, nucleated (inflammatory) cell count in bronchi alveolar lavage fluid (BALF). Type of test: in vivo. Conditions: BALF total nucleated cells, model group 182.50 ± 24.52, blank group 85.50 ± 18.70. The text has this:
Rat asthma model was established, and proceeded with blunt dissection of trachea following the last feeding of drug for trachea alveolar washing. Bronchi alveolar lavage fluid (BALF) was collected, and total number of nucleated cells were counted.

A further test concerns Rat PAH model. Description: Monocrotaline incurred pulmonary hypertension in rats, right ventricular systolic pressure. The settings on record: 200 mg/Kg daily, 30th day, right cardiac catheterization, x ± s, model group 43.78 ± 2.14, normal group 21.08 ± 2.13. Type of test: in vivo. The method, then: Method: Rat PAH model was established, and normal saline was fed to contrast group with volume equivalent to that for injection. Drug for interference was fed 2 days after radiography. 200 mg/Kg per compound was fed on daily basis. Normal saline was used with equivalent volume for lavage to the contrast group and model group respectively. Right ventricular systolic pressure of rat was measured by means of Right cardiac catheterization at anesthesia state on the 30th day.

Test [1] has as its system Isolated tracheal strip (trachea smooth muscle). As to the kind of experiment: Isolated tracheal strip relaxation (diastolic rate) after acetylcholine chloride contraction. Conditions: read-out: Relaxation rate %. The procedure:
Method: Isolated tracheal strip was fabricated, and was placed in the in-vitro tracheal experiment device; 100 μL acetylcholine chloride was added following tension adjustment and balancing to make the trachea extract, and the tension of trachea was increased. Once the tension was increased to the maximum value, and became balanced, corresponding trial drug was fed to inhibit extraction of the trachea; isometric muscle tension variation curve was recorded, and diastolic rate of smooth muscle was calculated. Diastolic rate=(tension after radiography−tension after dosing)/(tension after radiography)*100%.

Another test deals with isolated atria. Conditions: guinea pig; cited from earlier work.
The subject of a further test is tracheal smooth muscle. The settings on record: guinea pig, cited from earlier work.
[2] abbreviates: 0.75 mmol/L, isolated tracheal strip contracted with acetylcholine chloride.
[3] abbreviates: 1.25 mmol/L, isolated tracheal strip contracted with acetylcholine chloride.

On to `CCCCCCCCCCCCCC(=O)OC(C)(C)C1CC=C(C)CC1` (stereo not drawn) [A], for which, in the test with Rat asthma model, the Inflammatory cell is 139.50 ± 31.24^Δ × 10^8/L. Further, the RVSP in the test with Rat PAH model is on record as 35.07 ± 2.81 mmHg. Also, in test [1] (setting [2]), the inhibition at 750 µM turned out to be 17.6 ± 2.89%. The inhibition at 1250 µM in test [1] (setting [3]) stood at 16.6 ± 14.5%.

In the case of `Cn1c(=O)c2[nH]cnc2n(C)c1=O` [Aminophylline, reference compound], the inhibition at 750 µM in test [1] (setting [2]) came out at 43.7 ± 10.2%. Moreover, the inhibition at 1250 µM in test [1] (setting [3]) was 56.7 ± 9.26%.

Turning to `CCCCCCCCCCCCCCCCCC(=O)OC(C)(C)C1CC=C(C)CC1` (stereo not drawn) [B], in the test with Rat asthma model, the Inflammatory cell is 134.50 ± 25.27^Δ × 10^8/L. Moreover, the RVSP in the test on Rat PAH model turned out to be 36.08 ± 2.01 mmHg. Further, the inhibition at 750 µM in test [1] (setting [2]) worked out at 15.4 ± 9.83%. In addition, in test [1] (setting [3]), the inhibition at 1250 µM came out at 10.6 ± 13.8%.

For the compound `CC1=CCC(C(C)(C)OC(=O)CN(C)CCO)CC1` (stereo not drawn) [C], the Inflammatory cell in the test with Rat asthma model is 77.50 ± 68.81 × 10^8/L. Moreover, the RVSP in the test with Rat PAH model is reported as 22.33 ± 1.03^ΔΔ## mmHg. In test [1] (setting [2]), the inhibition at 750 µM is 50.2 ± 7.3%. The inhibition at 1250 µM in test [1] (setting [3]) stood at 76.8 ± 7.7%.

Take `CC1=CCC(C(C)(C)OC(=O)CN2CCOCC2)CC1` (stereo not drawn) [D]: the Inflammatory cell with Rat asthma model is on record as 110.5 ± 16.21 × 10^8/L. The RVSP in the test on Rat PAH model is reported as 32.04 ± 1.12^Δ mmHg. The inhibition at 750 µM in test [1] (setting [2]) was 36.6 ± 13.8%. The inhibition at 1250 µM in test [1] (setting [3]) is 59.4 ± 14.7%.

Consider `CC1=CCC(C(C)(C)OC(=O)CO[N+](=O)[O-])CC1` (stereo not drawn) [E], for which the Inflammatory cell in the test with Rat asthma model is reported as 139.50 ± 20.71^Δ × 10^8/L. The RVSP with Rat PAH model is 35.53 ± 3.02 mmHg. In test [1], the inhibition at 750 µM came to 17.1 ± 6.98% and the inhibition at 1250 µM was found to be 10.8 ± 4.46%.

Take `CCN(CC)CC(=O)OC(C)(C)C1CC=C(C)CC1` (stereo not drawn) [F]: the Inflammatory cell in the test on Rat asthma model is listed as 101.50 ± 14.68 × 10^8/L. In addition, the RVSP in the test with Rat PAH model is 23.35 ± 1.04^ΔΔ## mmHg. Also, in test [1] (setting [2]), the inhibition at 750 µM stood at 42.3 ± 10.4%. Further, the inhibition at 1250 µM in test [1] (setting [3]) was determined as 46.7 ± 3.56%.

`CC1=CCC(C(C)(C)OC(=O)CSCCO)CC1` (stereo not drawn) [G]: the Inflammatory cell with Rat asthma model is given as 76.00 ± 18.15 × 10^8/L. Moreover, in the test with Rat PAH model, the RVSP is 21.08 ± 1.31^ΔΔ# mmHg. Further, the inhibition at 750 µM in test [1] (setting [2]) came out at 48.3 ± 9.36%. In test [1] (setting [3]), the inhibition at 1250 µM was 81.1 ± 10.2%.

In the case of `CC1=CCC(C(C)(C)OC(=O)CN2CCC(=O)CC2)CC1` (stereo not drawn) [H], in the test on Rat asthma model, the Inflammatory cell is given as 123.00 ± 17.23 × 10^8/L. Also, the RVSP in the test with Rat PAH model is listed as 30.33 ± 2.03^Δ mmHg. Besides, the inhibition at 750 µM in test [1] (setting [2]) amounted to 20.9 ± 7.55%. Further, in test [1] (setting [3]), the inhibition at 1250 µM stood at 43.8 ± 10.2%.

On to `CC1=CCC(C(C)(C)OC(=O)CN2CCC(O)CC2)CC1` (stereo not drawn) [J], for which the Inflammatory cell in the test on Rat asthma model was 99.50 ± 21.23 × 10^8/L. In the test on Rat PAH model, the RVSP is 27.06 ± 1.17^Δ mmHg. Also, in test [1] (setting [2]), the inhibition at 750 µM was determined as 35.2 ± 13.9%. The inhibition at 1250 µM in test [1] (setting [3]) worked out at 71.5 ± 15.4%.

On to `CC1=CCC(C(C)(C)OC(=O)CN2CCCCC2)CC1` (stereo not drawn) [L], for which the Inflammatory cell in the test on Rat asthma model was 110.50 ± 16.18 × 10^8/L. In the test on Rat PAH model, the RVSP is 25.36 ± 1.17^ΔΔ# mmHg. Moreover, in test [1] (setting [2]), the inhibition at 750 µM was 42.5 ± 6.14%. In addition, the inhibition at 1250 µM in test [1] (setting [3]) worked out at 52.2 ± 6.98%.

Regarding `CC1=CCC(C(C)(C)OC(=O)CN(CCO)CCO)CC1` (stereo not drawn) [M], the Inflammatory cell with Rat asthma model is reported as 97.50 ± 13.11 × 10^8/L. Besides, the RVSP in the test on Rat PAH model is reported as 33.36 ± 2.05^Δ mmHg. In test [1] (setting [2]), the inhibition at 750 µM worked out at 27.7 ± 2.08%. The inhibition at 1250 µM in test [1] (setting [3]) was 61 ± 5.07%.

As to `CC1CCC(C(C)(C)O)CC1` (stereo not drawn) [N], in the test on Rat asthma model, the Inflammatory cell is on record as 140.00 ± 26.21^Δ × 10^8/L. For the same compound, the RVSP with Rat PAH model is recorded as 32.56 ± 2.82^Δ mmHg. For the same compound, the inhibition at 750 µM in test [1] (setting [2]) is 27.2 ± 14.1%. For the same compound, in test [1] (setting [3]), the inhibition at 1250 µM stood at 41.3 ± 13.2%.

Consider `CC1=CCC(C(C)(C)O)CC1` (stereo not drawn) [α-T, α,α,4-Trimethylcyclohex-3-en-1-methanol, reference compound], for which the Inflammatory cell in the test with Rat asthma model is listed as 113.00 ± 21.27 × 10^8/L. Moreover, in the test with Rat PAH model, the RVSP was 33.03 ± 2.22^Δ mmHg. Moreover, the “effect on isolated atria” value with isolated atria is given as “inhibiting effect”. Further, in test [1] (setting [2]), the inhibition at 750 µM was 28.4 ± 16.1%. In test [1] (setting [3]), the inhibition at 1250 µM amounted to 38.4 ± 13.6%. Further, the “cAMP content in the tracheal smooth muscle” value with tracheal smooth muscle is recorded as “increase cAMP content”. Also, the air passage relaxation result in the test with tracheal smooth muscle (in vivo experiment and experiment in vitro) is “available for air passage relaxation”.
